Measurements as given in PMC11721541 (Journal of Lipid Research, 2024).
pIC50: −log10 of the molar value.

How the values were obtained:
[1] = target: T1, human lipin 1α (Homo sapiens, UniProt Q14693); assay: PAP assay, human lipin 1α; type: biochemical; conditions: for pIC50: unphosphorylated, from E. coli, PA 2.4 mol %
T1 construct: His6 (C); made in house; host or cells: E. coli Rosetta2(DE3)pLysS, plasmid pGH322 (pET-28b(+) derivative)
T1 sequence (Q14693 1-890): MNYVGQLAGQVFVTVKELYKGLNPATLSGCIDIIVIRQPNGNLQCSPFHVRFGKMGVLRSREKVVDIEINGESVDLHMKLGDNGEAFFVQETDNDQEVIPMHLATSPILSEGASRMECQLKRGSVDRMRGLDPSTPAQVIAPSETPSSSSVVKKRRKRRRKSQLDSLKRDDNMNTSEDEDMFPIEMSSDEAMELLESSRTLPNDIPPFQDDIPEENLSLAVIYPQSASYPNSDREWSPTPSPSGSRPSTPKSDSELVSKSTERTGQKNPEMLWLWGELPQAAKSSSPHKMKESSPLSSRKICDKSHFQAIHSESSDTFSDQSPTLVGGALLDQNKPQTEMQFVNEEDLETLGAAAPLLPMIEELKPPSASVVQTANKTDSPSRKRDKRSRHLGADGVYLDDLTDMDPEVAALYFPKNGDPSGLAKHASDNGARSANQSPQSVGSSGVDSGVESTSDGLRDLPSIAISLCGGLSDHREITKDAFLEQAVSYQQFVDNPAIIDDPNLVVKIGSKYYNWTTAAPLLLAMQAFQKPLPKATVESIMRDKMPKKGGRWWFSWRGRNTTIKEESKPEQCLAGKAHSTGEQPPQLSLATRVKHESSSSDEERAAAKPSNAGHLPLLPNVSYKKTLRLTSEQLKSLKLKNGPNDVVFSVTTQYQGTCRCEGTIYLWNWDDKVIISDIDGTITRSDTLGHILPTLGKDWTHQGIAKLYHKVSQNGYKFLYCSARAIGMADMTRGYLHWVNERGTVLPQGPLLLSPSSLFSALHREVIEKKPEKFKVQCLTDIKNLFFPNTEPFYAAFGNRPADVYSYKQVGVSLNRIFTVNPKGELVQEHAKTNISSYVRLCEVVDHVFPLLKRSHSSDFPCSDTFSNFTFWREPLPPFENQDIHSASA
Description: (§1) PA dissolved in chloroform was dried in vacuo for 1 h. The dried PA was suspended in Triton X-100 to prepare Triton X-100/PA-mixed micelles ([88]). The mole percent of PA in the Triton X-100/PA-mixed micelle was calculated using the following formula: mol %PA = 100 × [PA (molar)]/([PA (molar)] + [Triton X-100 (molar)]). The total PA concentration in the Triton X-100/PA-mixed micelles was kept below 15 mol% to ensure that the structure of the PA-mixed micelles was similar to that of pure Triton X-100 micelles ([89], [90]).
(§2) PAP activity was measured at 30°C for 20 min by following the release of water-soluble ^32Pi from chloroform-soluble [^32P]PA (5,000–10,000 cpm/nmol) ([1], [88]). [^32P]PA was enzymatically synthesized from 1, 2-dioleoyl DAG and [γ-^32P]ATP with E. coli DAG kinase ([88]). Pah1-CC PAP activity was measured by following the formation of Pi from unlabeled PA using the malachite green-molybdate reagent ([4], [91]). The reaction mixture in a total volume of 100 μl contained 50 mM Tris-HCl (pH 7.5), 1 mM MgCl2, 10 mM 2-mercaptoethanol, 0.2 mM PA, 2 mM Triton X-100, and 50 ng purified enzyme. The enzyme assays were conducted in triplicate; the reactions were linear with time and protein concentration.
(§3) Each of the isoforms was heterologously expressed in E. coli, which allowed for their isolation in the unphosphorylated state ([4]).

[2] = target: T2, human lipin 1γ (Homo sapiens, UniProt Q14693); assay: PAP assay, human lipin 1γ; type: biochemical; conditions: unphosphorylated, from E. coli; PA 2.4 mol %
T2 construct: His6 (C); made in house; host or cells: E. coli Rosetta2(DE3)pLysS, plasmid pGH321 (pET-28b(+) derivative)
T2 sequence (Q14693 1-916 isoform Q14693-4): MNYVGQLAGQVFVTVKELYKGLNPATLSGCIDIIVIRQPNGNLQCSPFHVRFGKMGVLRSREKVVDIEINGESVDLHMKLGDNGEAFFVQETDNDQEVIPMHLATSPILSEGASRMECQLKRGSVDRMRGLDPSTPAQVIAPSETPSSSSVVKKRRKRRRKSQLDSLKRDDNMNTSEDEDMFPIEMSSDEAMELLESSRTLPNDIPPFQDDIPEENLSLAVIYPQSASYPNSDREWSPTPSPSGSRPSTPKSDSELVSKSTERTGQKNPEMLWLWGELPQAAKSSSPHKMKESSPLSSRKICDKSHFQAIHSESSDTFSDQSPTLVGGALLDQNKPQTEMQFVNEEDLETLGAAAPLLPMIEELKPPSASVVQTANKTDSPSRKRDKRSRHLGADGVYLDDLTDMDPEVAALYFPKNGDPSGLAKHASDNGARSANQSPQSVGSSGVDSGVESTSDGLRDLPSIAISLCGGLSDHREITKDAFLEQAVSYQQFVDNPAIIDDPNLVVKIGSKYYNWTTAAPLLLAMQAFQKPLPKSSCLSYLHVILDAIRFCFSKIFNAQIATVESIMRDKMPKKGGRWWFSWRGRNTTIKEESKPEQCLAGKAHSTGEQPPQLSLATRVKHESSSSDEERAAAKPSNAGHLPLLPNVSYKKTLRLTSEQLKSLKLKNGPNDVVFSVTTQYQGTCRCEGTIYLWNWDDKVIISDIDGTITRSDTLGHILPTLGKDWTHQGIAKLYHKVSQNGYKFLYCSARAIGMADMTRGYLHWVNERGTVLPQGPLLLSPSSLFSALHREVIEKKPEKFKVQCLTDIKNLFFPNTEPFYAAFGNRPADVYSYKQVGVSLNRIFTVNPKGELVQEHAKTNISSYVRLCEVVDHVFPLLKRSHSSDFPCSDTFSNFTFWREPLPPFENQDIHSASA
Description: as §1, §2, §3

[3] = target: T3, human lipin 1β (Homo sapiens, UniProt Q14693); assay: PAP assay, human lipin 1β; type: biochemical; conditions: unphosphorylated, from E. coli; PA 2.4 mol %
T3 construct: His6 (C); made in house; host or cells: E. coli Rosetta2(DE3)pLysS, plasmid pGH327 (pET-28b(+) derivative)
T3 sequence (Q14693 1-926 isoform Q14693-3): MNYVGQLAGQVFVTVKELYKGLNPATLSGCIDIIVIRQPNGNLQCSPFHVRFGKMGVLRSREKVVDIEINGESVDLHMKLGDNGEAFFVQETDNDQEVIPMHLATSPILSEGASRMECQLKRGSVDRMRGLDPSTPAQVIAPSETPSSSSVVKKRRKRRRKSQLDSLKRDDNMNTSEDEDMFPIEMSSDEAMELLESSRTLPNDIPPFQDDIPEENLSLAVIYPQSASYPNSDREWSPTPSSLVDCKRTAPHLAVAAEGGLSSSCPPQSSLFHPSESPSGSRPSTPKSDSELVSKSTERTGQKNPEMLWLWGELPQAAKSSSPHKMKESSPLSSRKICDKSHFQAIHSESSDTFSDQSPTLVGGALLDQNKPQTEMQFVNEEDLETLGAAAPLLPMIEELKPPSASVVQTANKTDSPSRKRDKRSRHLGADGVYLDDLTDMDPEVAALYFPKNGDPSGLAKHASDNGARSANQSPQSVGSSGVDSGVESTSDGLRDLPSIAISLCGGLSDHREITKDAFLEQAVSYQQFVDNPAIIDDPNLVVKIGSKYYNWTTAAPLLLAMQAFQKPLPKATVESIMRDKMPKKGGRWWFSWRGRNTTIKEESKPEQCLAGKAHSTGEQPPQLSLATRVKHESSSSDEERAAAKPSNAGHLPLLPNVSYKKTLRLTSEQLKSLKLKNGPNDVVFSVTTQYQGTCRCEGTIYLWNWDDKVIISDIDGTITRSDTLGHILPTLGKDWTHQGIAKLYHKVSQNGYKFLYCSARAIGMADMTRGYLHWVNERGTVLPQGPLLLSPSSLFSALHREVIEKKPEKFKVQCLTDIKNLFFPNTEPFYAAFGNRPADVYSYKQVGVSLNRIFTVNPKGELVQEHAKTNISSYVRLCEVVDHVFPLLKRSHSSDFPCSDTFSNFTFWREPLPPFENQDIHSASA
Description: as §1, §2, §3

[4] = system: HepG2 cells; assay: Lipid analysis (TLC, charring) in HepG2 cells; type: cell-based, human; conditions: 10 μM, 18 h
[5] = system: WT S. cerevisiae cells (RS453); assay: Lipid analysis ([2-14C]acetate labeling, TLC) in S. cerevisiae; conditions: 163 μM, 12 h, SC-0.2% glucose
Description: Lipids were extracted ([97]) from ∼ 8 × 10^7 cells and analyzed by one-dimensional TLC with silica gel 60 plates using the solvent system containing hexane/diethyl ether/glacial acetic acid (40:10:1, v/v) ([98]). Radiolabeled lipids were visualized by phosphorimaging with a Storm 860 Molecular Imager (GE Healthcare) and quantified with ImageQuant software using a standard curve of [2–^14C]acetate. The amounts of TAG and phospholipids were normalized to total lipids on TLC plates.
The radiolabeling was performed in the SC medium owing to the difficulty of [2–^14C]acetate incorporation into cells grown in the RPMI medium.

[6] = system: pah1Δ mutant cells; type: cell-based, Saccharomyces cerevisiae
Description: (§4) The cell density was determined by measurement of A600 nm after a 48-h static incubation using a SpectraMax M2e microplate reader (Molecular Devices). […] The A600 nm readings were taken after 4 days of incubation.
For this experiment, we cultured the mutant in SC-0.2% glucose medium because of its growth defect in RPMI-0.2% glucose.
We reasoned that an overexpressed level of PAP activity would more readily rescue the inhibitory effect of the drug on the mutant growth.

[7] = system: pah1Δ cells (SS1026) overexpressing Pah1 or Pah1-CC; type: cell-based, Saccharomyces cerevisiae
Description: as §4

Row | Structure (SMILES) | pIC50 [1] | pIC50 [2] | pIC50 [3] | reduction in the TAG level [4] | growth of cells during the incubation period ([4]; vs DMSO vehicle) | decrease of TAG content [5] | increase of phospholipid content [5] | IC50 values for lipin 1 isoforms lower than those of propranolol ([1]; lipin 1 α, β and γ isoforms together) | effect on growth of pah1Δ mutant [6] | effect on growth of cells expressing Pah1 [7]
1 | CC(C)NCC(O)COc1cccc2ccccc12 (stereo not shown) [propranolol] | 3.65 | 3.64 | 3.57 |  |  |  |  |  |  | 
2 | CN[C@H]1CC[C@@H](c2ccc(Cl)c(Cl)c2)c2ccccc21 [sertraline] | 3.99 | 3.84 | 3.97 | 2 fold | did not differ from that of the control | 2.2 fold | 1.2 fold | ~2 fold | severe reduction in growth | mild inhibition
